Experimental data: US5386030A, “Antiviral (phosphonomethoxy)methoxy purine/pyrimidine derivatives” (Institute of Organic Chemistry and Biochemistry of the …, priority 1993, dated 1995)
In brackets after ≈: the same amount, converted by molar mass. Where a name gives a salt, the structure may show the parent alone. Read-outs that look alike come from different tables or passages of the source.

Columns and labels:
[1] = tested on: HCMV; test: plaque reduction assay, HCMV strain AD169 (MRC-5 cells); type: cell-based, Human cytomegalovirus (strain AD169); conditions: for IC50: read-out: ID50 HCMV
Protocol: (§1) The compounds are tested for activity against the herpes simplex stains using a stock solution of each compound freshly prepared. Appropriate dilution of each compound are made in 10% EMEM before usage. The antiviral efficacy of each compound is determined using the plaque reduction assay described above. Briefly, tissue culture 24-well plates, with approximately 50 plaque forming units of HSV per 0.1 ml, and the virus absorbed for 1 hour, with intermittent shaking. After removal of the inoculum, 1 ml of 10% EMEM containing two-fold dilutions of the appropriate drug are added in triplicates. Triplicate wells/plate receives no drug and are used as a virus control. After a 48-hour incubation period, at 37° C. in a 5% CO2 atmosphere, the overlay medium is removed, the cells are stained as described above, and plaques are counted. The counts of triplicate wells are averaged, and the number of plaques in the presence of each drug dilution are calculated.
Human cytomegalovirus (HCMV) (strain AD169) was grown and titered at 37° C. in human embryonic lung (diploid) cells, MRC-5. The activity of compounds against HCMV was determined by using the procedure for the plaque reduction assay described above.
(§2) The antiviral potency of the drug is determined by ID50, the drug concentration necessary to reduce the number of plaques by 50% of those in the virus control cultures.

[2] = tested on: HSV-2; test: plaque reduction assay, HSV-2 (vero cells); type: cell-based, herpes simplex virus II; conditions: for IC50: 48 h
Protocol: (§3) Herpes simplex virus (HSV) strains were grown and titered at 37° C. in vero cells (African Green Monkey Kidney cells) and used for virus work before the tenth passage.
(§4) Cells were grown and maintained in Earle's Minimum Essential Medium (EMEM), Gibco Laboratories, supplemented with 0.75% sodium bicarbonate, 2 mM 1-glutamine, Pen-strep. and 5-10% fetal calf serum.
(§5) The titer of HSV strains is determined by a plaque titration method (Roizman and Roane, Virology, 115: 75-79, 1961). Tissue culture 24-well petri dishes are seeded with cells and used for assays when approximately 75% monolayer. Volumes (0.1 ml) of logarithmic dilutions of the virus strain are inoculated onto each of triplicate wells, and absorbed for one hour with intermittent shaking. The inoculum thereafter is removed, and 1 ml of 5-10% EMEM containing 0.3% human immune serum globulin is added. After a 48 hour incubation period at 37° C. in a 5% CO2 atmosphere, the overlay medium is removed and the cell sheets stained with Giemsa stain. The number of plaques is counted, the triplicate is averaged, and the number of plaque-forming units per ml is calculated.
as §1, §2

[3] = tested on: HSV-1; test: plaque reduction assay, HSV-1 (vero cells); type: cell-based, herpes simplex virus I; conditions: for IC50: 48 h, read-out: ID50 HSV-1
Protocol: as §3, §4, §5
as §1, with “calculated. […]” for “calculated.”

[4] = tested on: MuLV; test: UV-XC plaque assay, MuLV (SC-1 cells); type: cell-based, murine leukemia virus; conditions: for IC50: Murine leukemia virus
Protocol: The compounds were evaluated for antiviral activity against murine leukemia virus (MuLV) strains using the UV-XC plaque assay (Rowe, et al., Virology, 42: 1136, 1970).
The MuLV strains were grown in feral mouse cells (SC-1) and used for antiviral tests using the UV-XC plaque assay. Briefly, SC-1 cells are grown as monolayers in 4-well tissue culture plates and inoculated with approximately 50-100 plaque forming units of MuLV in 0.5 ml of 5% EMEM containing 20 μg/ml DEAE/Dextran. After 1 hour adsorption, the inoculum is removed and 5 ml of 5% EMEM containing three-fold dilutions of the appropriate drug are added. Five days later, the cultures are UV-irradiated with an ultraviolet lamp and rat XC sarcoma cells are added to the cultures. Three-four days after UV-irradiation, the cell cultures are stained with Giemsa stain and the plaques are enumerated. Antiviral activity is expressed in terms of the reduction in the mean number of UV-XC plaques counted in the drug treated, virus-infected cultures compared with mean number of plaques counted in untreated, virus-infected control cultures.
as §2

[5] = tested on: herpes simples virus-2; test: survival of mice inoculated with herpes simplex virus-2; type: in vivo
Protocol: A preferred example of one of these compounds, known as (S)-HPMPA (Formula V) was disclosed by DeClercq, et al., in Nature, 323: 464-467 (1986) and earlier by Holy, et al, Nucleic Acids Research, Symposium Series No. 14, pp. 277-278 (1984). Phosphonate compounds which are HPMPA analogs are described in South African Patent 1987/8607. […] In a 21 day protocol 30% of a group of animals treated i.p. with 50 mg/kg/day of (S)-HPMPA survived. [drawing 5]

[6] = Human betaherpesvirus 5, MRC5, 48 h, Table 2, strain AD169, MRC-5 cells
[7] = Human alphaherpesvirus 2, Table 2, drug concentration reducing plaques by 50%, vero cells, read-out: ID50 HSV-2
[8] = SC1, Table 2, UV-XC plaque assay, SC-1 cells, read-out: ID50 MULV

Compound: N.Nc1nc2c(ncn2OCOCP(=O)(O)O)c(=O)[nH]1 [Compound 14, 9-[(Phosphonomethoxy)methoxy]guanine ammonium salt]
- IC50 ([1]; Human betaherpesvirus 5, AD169, MRC5, 48 h): 0.2 µg/mL
- HSV-2 activity (in words) [2]: comparable to acyclovir (ACV)
- IC50 ([2]; Human alphaherpesvirus 2, Vero, read-out: ID50 HSV2): 1.3 µg/mL
- IC50 ([3]; Human alphaherpesvirus 1, Vero): 2.2 µg/mL
- HSV-1 activity (in words) ([3]; compared with ACV): comparable to acyclovir (ACV)

Compound: Nc1nc2c(ncn2COC(CO)CO)c(=O)[nH]1 [DHPG, reference compound]
- IC50 [1, 6]: 0.4 µg/mL (≈ 1.57 µM)
- IC50 [2, 7]: 0.2 µg/mL (≈ 0.784 µM)
- IC50 [4, 8]: > 100 µg/mL

Compound: Nc1ncnc2c1ncn2C[C@@H](CO)OCP(=O)(O)O [(S)-HPMPA]
- animals survived ([5]; HSV-2, i.p., 50 mg/kg/day, 21 day protocol): 30%
- activity in mice inoculated with herpes simplex virus-2 (in words) ([5]; HSV-2, in applicant's hands): only slightly active

Compound: Nc1ncnc2c1ncn2OC(CO)OCP(=O)(O)O (centres unmarked) [Compound 21, ammonium salt]
- IC50 [1, 6]: 1 µg/mL
- HCMV activity (in words) ([1]; compared with DHPG): comparable to DHPG
- IC50 [2, 7]: 2.6 µg/mL
- IC50 [4, 8]: 1.5 µg/mL

Compound: Nc1nc2c(ncn2COCCO)c(=O)[nH]1 [ACV, acyclovir, reference compound]
- IC50 ([1]; Human betaherpesvirus 5, MRC5, 48 h, Table 1, strain AD169, MRC-5 cells): 40 µg/mL (≈ 178 µM)
- IC50 ([2]; Human alphaherpesvirus 2, Table 1, drug concentration reducing plaques by 50%, vero cells, read-out: ID50 HSV2): 0.7 µg/mL (≈ 3.11 µM)
- IC50 [2, 7]: 0.35 µg/mL (≈ 1.55 µM)
- IC50 ([3]; Human alphaherpesvirus 1, Table 1, drug concentration reducing plaques by 50%, vero cells): 0.6 µg/mL (≈ 2.66 µM)
- IC50 [4, 8]: > 100 µg/mL

Compound: N.Nc1ncnc2c1ncn2OCOCP(=O)(O)O [Compound 4, 9-[(Phosphonomethoxy)methoxy]adenine ammonium salt]
- HSV-2 activity (in words) [2]: little activity
- IC50 ([2]; Human alphaherpesvirus 2, Vero, read-out: ID50 against HSV-2): > 100 µg/mL
- activity against MuLV (in words) [4]: good activity
- IC50 ([4]; SC-1, read-out: ID50 against MuLV): 1.5 µg/mL
